Legend:
[1] = target: 3',5'-cyclic-AMP phosphodiesterase 4D (Homo sapiens, UniProt Q08499); assay: Inhibition of human PDE4D2 catalytic domain (86 to 413 residues) expressed in Escherichia coli strain BL21 using [3H]cAMP as substrate after 15 mins by liquid scintillation counter analysis
[2] = target: cGMP-specific 3',5'-cyclic phosphodiesterase (Homo sapiens, UniProt O76074); assay: Inhibition of human PDE5A1 catalytic domain (535 to 860 residues) expressed in Escherichia coli strain BL21 using [3H]cAMP as substrate after 15 mins by liquid scintillation counter analysis
[3] = target: Dual specificity calcium/calmodulin-dependent 3',5'-cyclic nucleotide phosphodiesterase 1B (Homo sapiens, UniProt Q01064); assay: Inhibition of human PDE1B2 catalytic domain (10 to 487 residues) expressed in Escherichia coli strain BL21 using [3H]cAMP as substrate after 15 mins by liquid scintillation counter analysis
[4] = organism: Homo sapiens; assay: Selectivity ratio of IC50 for human PDE1B2 catalytic domain (10 to 487 residues) expressed in Escherichia coli strain BL21 to IC50 for human PDE4D2 catalytic domain (86 to 413 residues) expressed in Escherichia coli strain BL21
[5] = organism: Homo sapiens; assay: Selectivity ratio of IC50 for human PDE10A2 catalytic domain (448 to 789 residues) expressed in Escherichia coli strain BL21 to IC50 for human PDE4D2 catalytic domain (86 to 413 residues) expressed in Escherichia coli strain BL21
[6] = target: cGMP-dependent 3',5'-cyclic phosphodiesterase (Homo sapiens, UniProt O00408); assay: Inhibition of human PDE2A3 catalytic domain (222 to 904 residues) expressed in Escherichia coli strain BL21 using [3H]cAMP as substrate after 15 mins by liquid scintillation counter analysis
[7] = target: cAMP and cAMP-inhibited cGMP 3',5'-cyclic phosphodiesterase 10A (Homo sapiens, UniProt Q9Y233); assay: Inhibition of human PDE10A2 catalytic domain (448 to 789 residues) expressed in Escherichia coli strain BL21 using [3H]cAMP as substrate after 15 mins by liquid scintillation counter analysis
[8] = organism: Homo sapiens; assay: Selectivity ratio of IC50 for human PDE9A2 catalytic domain (181 to 506 residues) expressed in Escherichia coli strain BL21 to IC50 for human PDE4D2 catalytic domain (86 to 413 residues) expressed in Escherichia coli strain BL21
[9] = organism: Homo sapiens; assay: Selectivity ratio of IC50 for human PDE2A3 catalytic domain (222 to 904 residues) expressed in Escherichia coli strain BL21 to IC50 for human PDE4D2 catalytic domain (86 to 413 residues) expressed in Escherichia coli strain BL21
[10] = organism: Homo sapiens; assay: Selectivity ratio of IC50 for human PDE5A1 catalytic domain (535 to 860 residues) expressed in Escherichia coli strain BL21 to IC50 for human PDE4D2 catalytic domain (86 to 413 residues) expressed in Escherichia coli strain BL21
[11] = target: High affinity cGMP-specific 3',5'-cyclic phosphodiesterase 9A (Homo sapiens, UniProt O76083); assay: Inhibition of human PDE9A2 catalytic domain (181 to 506 residues) expressed in Escherichia coli strain BL21 using [3H]cAMP as substrate after 15 mins by liquid scintillation counter analysis
High affinity cGMP-specific 3',5'-cyclic phosphodiesterase 9A, sequence (O76083 whole entry, the tested form may be a part): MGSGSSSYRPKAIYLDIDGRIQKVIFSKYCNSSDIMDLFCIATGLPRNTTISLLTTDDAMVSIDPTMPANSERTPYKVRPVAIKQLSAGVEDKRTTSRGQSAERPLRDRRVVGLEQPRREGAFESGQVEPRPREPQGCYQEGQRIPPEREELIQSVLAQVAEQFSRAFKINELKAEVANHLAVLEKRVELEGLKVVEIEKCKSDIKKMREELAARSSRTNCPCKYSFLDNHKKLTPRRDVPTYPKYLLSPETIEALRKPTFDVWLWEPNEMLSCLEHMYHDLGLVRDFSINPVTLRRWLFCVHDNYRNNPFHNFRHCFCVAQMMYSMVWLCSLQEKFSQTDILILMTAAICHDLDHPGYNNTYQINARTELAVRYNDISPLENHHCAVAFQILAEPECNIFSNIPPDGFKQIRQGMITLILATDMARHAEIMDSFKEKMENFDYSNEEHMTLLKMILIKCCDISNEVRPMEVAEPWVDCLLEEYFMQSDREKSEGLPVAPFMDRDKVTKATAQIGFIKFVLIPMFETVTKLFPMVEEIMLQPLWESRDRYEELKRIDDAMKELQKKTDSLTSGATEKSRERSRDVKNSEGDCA

3',5'-cyclic-AMP phosphodiesterase 4D, sequence (Q08499 whole entry, the tested form may be a part): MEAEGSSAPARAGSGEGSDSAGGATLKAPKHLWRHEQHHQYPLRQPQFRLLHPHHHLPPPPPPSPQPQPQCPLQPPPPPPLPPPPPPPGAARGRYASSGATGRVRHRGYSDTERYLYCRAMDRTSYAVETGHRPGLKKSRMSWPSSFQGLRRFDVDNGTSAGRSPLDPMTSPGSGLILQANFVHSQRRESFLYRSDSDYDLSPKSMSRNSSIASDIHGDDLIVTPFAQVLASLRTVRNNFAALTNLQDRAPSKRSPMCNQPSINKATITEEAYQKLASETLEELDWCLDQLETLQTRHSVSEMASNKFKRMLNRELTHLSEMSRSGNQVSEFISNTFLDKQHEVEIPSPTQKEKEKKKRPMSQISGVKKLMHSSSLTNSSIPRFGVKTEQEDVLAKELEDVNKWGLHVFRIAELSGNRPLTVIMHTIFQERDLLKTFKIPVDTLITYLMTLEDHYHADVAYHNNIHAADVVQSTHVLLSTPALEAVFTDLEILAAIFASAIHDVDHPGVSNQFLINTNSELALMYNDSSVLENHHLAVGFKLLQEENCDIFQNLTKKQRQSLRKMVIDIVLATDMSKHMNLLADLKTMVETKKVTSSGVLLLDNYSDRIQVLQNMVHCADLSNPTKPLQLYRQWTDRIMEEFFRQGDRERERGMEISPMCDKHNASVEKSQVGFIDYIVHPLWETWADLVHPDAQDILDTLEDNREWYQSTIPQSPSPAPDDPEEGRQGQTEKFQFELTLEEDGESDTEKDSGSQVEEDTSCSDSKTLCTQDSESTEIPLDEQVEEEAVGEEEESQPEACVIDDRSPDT
cGMP-dependent 3',5'-cyclic phosphodiesterase, sequence (O00408 whole entry, the tested form may be a part): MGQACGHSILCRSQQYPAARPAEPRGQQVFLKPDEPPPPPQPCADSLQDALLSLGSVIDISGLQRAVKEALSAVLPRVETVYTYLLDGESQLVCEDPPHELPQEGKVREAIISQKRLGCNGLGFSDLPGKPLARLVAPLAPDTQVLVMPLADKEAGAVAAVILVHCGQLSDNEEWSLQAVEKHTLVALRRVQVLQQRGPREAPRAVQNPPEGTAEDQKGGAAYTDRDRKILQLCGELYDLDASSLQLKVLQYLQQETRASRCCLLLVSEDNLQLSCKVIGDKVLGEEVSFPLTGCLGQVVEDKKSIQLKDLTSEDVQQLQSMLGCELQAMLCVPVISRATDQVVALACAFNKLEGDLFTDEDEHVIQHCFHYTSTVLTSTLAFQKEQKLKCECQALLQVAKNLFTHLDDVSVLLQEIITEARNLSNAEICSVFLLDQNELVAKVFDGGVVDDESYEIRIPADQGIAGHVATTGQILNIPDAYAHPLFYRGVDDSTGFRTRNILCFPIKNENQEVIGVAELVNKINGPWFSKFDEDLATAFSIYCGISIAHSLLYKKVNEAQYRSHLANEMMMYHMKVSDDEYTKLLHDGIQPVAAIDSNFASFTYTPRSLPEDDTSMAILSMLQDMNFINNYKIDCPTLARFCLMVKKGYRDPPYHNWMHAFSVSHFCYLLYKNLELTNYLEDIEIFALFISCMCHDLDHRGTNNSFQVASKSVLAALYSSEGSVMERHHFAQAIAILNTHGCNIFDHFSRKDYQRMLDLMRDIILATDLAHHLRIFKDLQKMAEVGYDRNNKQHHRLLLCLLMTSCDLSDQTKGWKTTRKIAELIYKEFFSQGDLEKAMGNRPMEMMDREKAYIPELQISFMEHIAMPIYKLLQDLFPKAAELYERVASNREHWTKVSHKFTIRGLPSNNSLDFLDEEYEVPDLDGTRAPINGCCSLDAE
cAMP and cAMP-inhibited cGMP 3',5'-cyclic phosphodiesterase 10A, sequence (Q9Y233 whole entry, the tested form may be a part): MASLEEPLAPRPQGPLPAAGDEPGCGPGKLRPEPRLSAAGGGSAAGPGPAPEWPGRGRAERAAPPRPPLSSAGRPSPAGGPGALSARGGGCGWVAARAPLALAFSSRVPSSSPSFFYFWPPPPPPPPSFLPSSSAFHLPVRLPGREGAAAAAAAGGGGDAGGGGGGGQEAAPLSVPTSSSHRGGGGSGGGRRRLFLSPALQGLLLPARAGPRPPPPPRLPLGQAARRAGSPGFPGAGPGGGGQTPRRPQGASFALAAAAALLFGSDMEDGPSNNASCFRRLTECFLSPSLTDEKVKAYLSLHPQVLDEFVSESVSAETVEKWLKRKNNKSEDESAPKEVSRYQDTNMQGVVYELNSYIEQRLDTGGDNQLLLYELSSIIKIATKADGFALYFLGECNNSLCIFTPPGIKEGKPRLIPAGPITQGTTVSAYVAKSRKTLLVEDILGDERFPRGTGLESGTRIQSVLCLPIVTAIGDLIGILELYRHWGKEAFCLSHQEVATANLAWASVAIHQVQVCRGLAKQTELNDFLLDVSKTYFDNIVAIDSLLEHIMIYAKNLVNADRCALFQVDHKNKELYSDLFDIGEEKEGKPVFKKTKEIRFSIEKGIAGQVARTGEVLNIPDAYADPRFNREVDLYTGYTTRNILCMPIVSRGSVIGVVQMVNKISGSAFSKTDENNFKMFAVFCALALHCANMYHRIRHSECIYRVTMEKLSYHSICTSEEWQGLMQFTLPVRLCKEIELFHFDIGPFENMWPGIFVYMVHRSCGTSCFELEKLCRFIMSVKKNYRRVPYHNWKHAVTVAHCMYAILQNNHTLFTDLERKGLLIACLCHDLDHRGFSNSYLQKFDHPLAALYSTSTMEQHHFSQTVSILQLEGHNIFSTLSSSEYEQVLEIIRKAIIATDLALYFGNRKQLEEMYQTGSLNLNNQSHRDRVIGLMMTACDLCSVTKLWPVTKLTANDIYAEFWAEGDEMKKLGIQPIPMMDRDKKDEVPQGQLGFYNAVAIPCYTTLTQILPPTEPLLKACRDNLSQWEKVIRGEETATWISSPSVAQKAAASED
Dual specificity calcium/calmodulin-dependent 3',5'-cyclic nucleotide phosphodiesterase 1B, sequence (Q01064 whole entry, the tested form may be a part): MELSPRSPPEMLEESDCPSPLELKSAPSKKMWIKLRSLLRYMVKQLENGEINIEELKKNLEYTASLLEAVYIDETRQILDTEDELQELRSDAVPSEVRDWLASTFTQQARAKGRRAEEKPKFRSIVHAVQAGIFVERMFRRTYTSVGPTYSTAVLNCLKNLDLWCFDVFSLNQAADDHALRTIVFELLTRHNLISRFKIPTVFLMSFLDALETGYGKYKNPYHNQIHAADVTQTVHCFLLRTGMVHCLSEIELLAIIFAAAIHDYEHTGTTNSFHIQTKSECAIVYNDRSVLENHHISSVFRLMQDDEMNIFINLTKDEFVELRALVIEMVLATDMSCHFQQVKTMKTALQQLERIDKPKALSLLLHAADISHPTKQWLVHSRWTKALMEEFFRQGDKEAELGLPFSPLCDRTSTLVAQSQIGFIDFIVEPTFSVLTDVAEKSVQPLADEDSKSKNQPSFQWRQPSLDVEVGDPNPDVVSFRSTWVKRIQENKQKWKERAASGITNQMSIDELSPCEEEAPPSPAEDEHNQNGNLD

Row | IC50 [1] [nM] | Compound | further results
1 | 270 | CC(C)=CCCC1(C)C=Cc2c(ccc(-c3oc4cc(O)cc(O)c4c(=O)c3CC=C(C)C)c2O)O1 (stereo unspecified) | 
2 | 5.4 | CC(C)=C[C@H]1Oc2cc(O)ccc2-c2oc3c4c(cc(O)c3c(=O)c21)OC(C)(C)C=C4 | IC50 [2]: 410 nM; inhibition [1]: Dose-dependent effect; IC50 [3]: 300 nM; Ratio IC50 [4]: 55; Ratio IC50 [5]: 94; IC50 [6]: 590 nM; IC50 [7]: 510 nM; Ratio IC50 [8]: 65; Ratio IC50 [9]: 109; Ratio IC50 [10]: 76; IC50 [11]: 350 nM
3 | 1260 | CC(C)=CCC/C(C)=C/Cc1cc([C@@H]2CC(=O)c3c(O)cc(O)cc3O2)c(O)cc1O | 
4 | 250 | CC(C)=C[C@@H]1Oc2cc(O)ccc2-c2oc3c4c(cc(O)c3c(=O)c21)OC(C)(C)C=C4 | inhibition [1]: Dose-dependent effect
5 | 9900 | CC(C)=CCc1cc([C@@H]2CC(=O)c3c(O)cc(O)cc3O2)c(O)c(CC=C(C)C)c1O | 
6 | 9210 | C/C(C=O)=C\Cc1c(-c2ccc(O)cc2O)oc2c3c(cc(O)c2c1=O)OC(C)(C)C=C3 | 
7 | 630 | CC(C)=CCc1c(O)cc(O)c2c(=O)cc(-c3ccc(O)cc3)oc12 | 
8 | 3590 | CC(C)=CCCC1(C)C=Cc2cc(C3CC(=O)c4c(O)cc(O)cc4O3)c(O)cc2O1 (stereo unspecified) | 
9 | 400 | CC(C)=CC1Oc2cc(O)ccc2-c2oc3cc(O)cc(O)c3c(=O)c21 (stereo unspecified) | 
10 | 2190 | CC(C)=CCC/C(C)=C/Cc1c(O)c(CC=C(C)C)cc([C@@H]2CC(=O)c3c(O)cc(O)cc3O2)c1O | 
11 | 900 | CC(C)=CCc1c(-c2ccc(O)cc2O)oc2c3c(cc(O)c2c1=O)OC(C)(C)C=C3 [MORUSIN] | 
12 | 2330 | CC(C)=CCC/C(C)=C/Cc1c(O)ccc([C@@H]2CC(=O)c3c(O)cc(O)cc3O2)c1O | 
13 | 40 | CC(C)=CCc1c(O)cc(O)c2c(=O)c3c(oc12)-c1ccc(O)cc1OC3C=C(C)C (stereo unspecified) | 
14 | 20 | COC1CC(C)(C)Oc2cc(O)c3c(=O)c(CC=C(C)C)c(-c4ccc(O)cc4O)oc3c21 (stereo unspecified) | 

More lines, now with the values behind:

Row | Compound | IC50 [1] [nM] | further results
15 | C=CC(C)(C)c1cc(-c2cc(=O)c3c(O)cc(O)cc3o2)c(O)cc1O | 1880 | 
16 | CC(C)C[C@@H]1Oc2cc(O)ccc2-c2oc3c4c(cc(O)c3c(=O)c21)OC(C)(C)CC4 | 7500 | 
17 | CC(=O)Oc1ccc2c(c1)O[C@H](C=C(C)C)c1c-2oc2c3c(cc(O)c2c1=O)OC(C)(C)C=C3 | 4890 | 
18 | CC1(C)C=Cc2c(ccc(-c3cc(=O)c4c(O)cc5c(c4o3)C=CC(C)(C)O5)c2O)O1 | 30 | 
19 | CC(C)=CCc1c(-c2ccc(O)cc2O)oc2c(CC=C(C)C)c(O)cc(O)c2c1=O [KUWANON C] | 310 | 
20 | CC(C)=CCc1c(O)cc2oc(-c3ccc(O)cc3O)c(CC=C(C)C)c(=O)c2c1O [CUDRAFLAVONE C] | 260 | 
21 | CC(C)C[C@H]1Oc2cc(O)ccc2-c2oc3c4c(cc(O)c3c(=O)c21)OC(C)(C)CC4 | 4350 | 
22 | CC1(C)C=Cc2c(c3c(c4c(=O)cc(-c5ccc(O)cc5O)oc24)OC(C)(C)CC3)O1 | 870 | 
23 | COc1ccc2c(c1)O[C@@H](C=C(C)C)c1c-2oc2c3c(cc(O)c2c1=O)OC(C)(C)C=C3 | 8600 | 
24 | COc1ccc2c(c1)O[C@H](C=C(C)C)c1c-2oc2c3c(cc(O)c2c1=O)OC(C)(C)C=C3 | 5180 | 

— ChEMBL document CHEMBL4145464, “Prenylated flavonoids as potent phosphodiesterase-4 inhibitors from Morus alba: Isolation, modification, and structure-activity relationship study” (Eur J Med Chem, 2018)
